Measurements reported in patent publication EP2340832A1, “Morphinan-6-one compounds for the treatment or prevention of neurodegenerative diseases” (Universität Innsbruck, priority 2009, dated 2011).
Read-outs that look alike come from different tables or passages of the source.

How the values were obtained:
[1] = target: σ receptors labelled by [^3H]DTG (σ1 + σ2); assay: Sigma receptor binding assay, [3H]DTG; settings: read-out: IC50 ± SEM [^3H]DTG (σ1 + σ2); guinea pig brain membranes; compounds 1-5 tested up to 10 µM
Method: (§1) Filters were washed three times with 5 ml of ice-cold 10 mM Tris-HCI buffer (pH 8). The bound radioactivity was measured by liquid scintillation counting (Beckman Coulter™ LS6500). […] The values are expressed as the mean ± S.E.M of 2 - 4 independent experiments, each performed in duplicate.

[2] = target: T1, k opioid receptors (Cavia porcellus, UniProt P41144); assay: Opioid receptor binding assay, [3H]U69,593, guinea pig brain membranes
T1 construct: Membrane fractions were prepared from Sprague-Dawley rat or guinea pig brains; from tissue; host or cells: guinea pig brain (without cerebella) membranes
T1 sequence (P41144 whole entry): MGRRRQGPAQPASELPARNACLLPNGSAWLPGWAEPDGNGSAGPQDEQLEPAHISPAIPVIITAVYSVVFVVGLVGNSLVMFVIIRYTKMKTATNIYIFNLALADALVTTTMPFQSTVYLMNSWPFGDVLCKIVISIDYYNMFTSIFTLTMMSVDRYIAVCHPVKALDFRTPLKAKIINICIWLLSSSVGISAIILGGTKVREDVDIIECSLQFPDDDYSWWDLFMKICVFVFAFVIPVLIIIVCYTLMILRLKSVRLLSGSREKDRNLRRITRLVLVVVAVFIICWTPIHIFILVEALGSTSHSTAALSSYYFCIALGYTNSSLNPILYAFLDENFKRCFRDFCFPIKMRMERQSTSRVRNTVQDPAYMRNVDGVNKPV
Method: (§2) Briefly, brains without cerebella were homogenised on ice in 5 volumes of ice-cold 50 mM Tris-HCI buffer (pH 7.4) and diluted in 30 volumes of the same buffer. After centrifugation at 40,000 x g for 20 min at 4°C, the pellets were resuspended in 30 volumes of Tris-HCI buffer and incubated at 37 °C for 30 min (rat brain) or for 10 min (guinea pig brain). The centrifugation step was repeated and the final pellets were resuspended in 5 volumes of 50 mM Tris-HCI buffer (pH 7.4) containing 0.32 M sucrose to give a protein concentration of 4 - 6 mg/ml. Protein concentration was determined by the method of Bradford using bovine serum albumin as standard.
(§3) Binding experiments were performed in 50 mM Tris-HCI buffer (pH 7.4) in a final volume of 1 ml containing 0.3 - 0.5 mg protein and different concentrations of the compounds. […] Guinea pig brain membranes were incubated with [^3H]U69,593 (30 min, 30 °C). Non-specific binding was determined in the presence of 10 µM unlabeled naloxone. […] Inhibition constant (Ki) values were calculated from competition binding curves using GraphPad Prism (San Diego, CA, USA) program. The values are expressed as the mean ± S.E.M of 2-4 independent experiments, each performed in duplicate.
(§4) The morphinan-6-one compounds of the present invention were evaluated in in vitro receptor binding assays for their interaction abilities with µ, δ and k opioid receptors. […] The affinities of the compounds at k opioid receptors were determined by displacement of [^3H]U69,593 using guinea pig brain membranes.

[3] = target: T2, δ opioid receptors (Rattus norvegicus, UniProt P33533); assay: Opioid receptor binding assay, [3H][Ile5,6]deltorphin II, rat brain membranes; design: species or system Sprague-Dawley rat
T2 construct: Membrane fractions were prepared from Sprague-Dawley rat or guinea pig brains; from tissue; host or cells: Sprague-Dawley rat brain (without cerebella) membranes
T2 sequence (P33533 whole entry): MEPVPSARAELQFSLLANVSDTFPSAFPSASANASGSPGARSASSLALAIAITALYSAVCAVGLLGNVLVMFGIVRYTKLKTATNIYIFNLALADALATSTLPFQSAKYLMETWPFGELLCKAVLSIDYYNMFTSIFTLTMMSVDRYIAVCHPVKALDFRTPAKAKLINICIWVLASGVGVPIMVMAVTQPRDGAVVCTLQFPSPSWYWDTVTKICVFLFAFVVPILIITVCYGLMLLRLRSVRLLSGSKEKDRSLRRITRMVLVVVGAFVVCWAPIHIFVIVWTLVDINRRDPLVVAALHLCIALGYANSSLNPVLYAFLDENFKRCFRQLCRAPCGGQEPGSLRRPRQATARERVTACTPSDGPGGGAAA
Method: as §2, §3, §4

[4] = target: T3, µ opioid receptor (Rattus norvegicus, UniProt P33535); assay: Opioid receptor binding assay, [3H]DAMGO, rat brain membranes; design: Membrane fractions were prepared from Sprague-Dawley rat or guinea pig brains; from tissue; host or cells: Sprague-Dawley rat brain (without cerebella) membranes; species or system Sprague-Dawley rat
T3 sequence (P33535 whole entry): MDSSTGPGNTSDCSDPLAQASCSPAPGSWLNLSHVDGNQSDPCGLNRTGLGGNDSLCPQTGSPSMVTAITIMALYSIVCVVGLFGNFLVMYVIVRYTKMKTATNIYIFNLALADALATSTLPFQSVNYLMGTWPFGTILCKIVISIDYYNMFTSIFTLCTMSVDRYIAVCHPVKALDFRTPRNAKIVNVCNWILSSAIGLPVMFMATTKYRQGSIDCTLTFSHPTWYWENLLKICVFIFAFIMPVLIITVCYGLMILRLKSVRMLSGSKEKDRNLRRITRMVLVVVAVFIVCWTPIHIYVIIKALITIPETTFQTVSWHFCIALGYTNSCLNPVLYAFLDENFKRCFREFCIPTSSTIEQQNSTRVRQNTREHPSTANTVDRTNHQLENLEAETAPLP
Method: as §2, §3, §4

[5] = target: T3, µ opioid receptor; assay: [35S]GTPγS functional assay, rat brain membranes, µ receptor; format: biochemical, Sprague-Dawley rat; design: Membrane fractions were prepared from Sprague-Dawley rat or guinea pig brains; from tissue; host or cells: Sprague-Dawley rat brain (without cerebella) membranes
Method: (§5) Membrane fractions were prepared from Sprague-Dawley rat or guinea pig brains as described above. To determine binding of [^35S]GTPyS, rat or guinea pig brain membranes (10 µg of protein) were incubated for 60 min at 30 °C in Tris-EGTA buffer (50 mM Tris-HCl buffer, 3 mM MgCl2, 1 mM EGTA, […], pH 7.4) containing 30 µM GDP, 0.05 nM [^35S]GTPyS and appropriate concentrations of the respective compounds according to the present invention in a final volume of 1 ml. The reaction was terminated by vacuum filtration through Whatman GF/B glass fibre filters. Filters were washed three times with ice-cold 50 mM Tris-HCI buffer (pH 7.4) and the bound radioactivity was measured by liquid scintillation counting (Beckman Coulter™ LS6500). Basal activity was determined by subtracting the non-specific binding (measured in the presence of 100 µM unlabelled GTPyS) from the total binding (measured in the absence of the compound).
(§6) Stimulation produced by the compound is given as percentage of the basal activity (given as 100%). Functional data, EC50 (nM; half maximal effective concentration) and maximal stimulation Emax (% stimulation over basal level; maximal effective concentration), were calculated by using nonlinear regression analysis and sigmoidal curve fitting GraphPad Prism (San Diego, CA, USA) program. The values are expressed as the mean ± S.E.M of at least 3 independent experiments, each performed in triplicate. Statistical analysis was carried out using SPSS software (SPSS Inc., Chicago, lL, USA) and the Student T-test was used to compare different assay conditions. A ρ value < 0.05 was considered statistically significant.

[6] = target: T4, σ receptors labelled by [^3H](+)-pentazocine (σ1) (Cavia porcellus, UniProt Q60492); assay: Sigma receptor binding assay, [3H](+)-pentazocine; design: species or system guinea pig
T4 construct: from tissue; host or cells: guinea pig brain membranes
T4 sequence (Q60492 whole entry): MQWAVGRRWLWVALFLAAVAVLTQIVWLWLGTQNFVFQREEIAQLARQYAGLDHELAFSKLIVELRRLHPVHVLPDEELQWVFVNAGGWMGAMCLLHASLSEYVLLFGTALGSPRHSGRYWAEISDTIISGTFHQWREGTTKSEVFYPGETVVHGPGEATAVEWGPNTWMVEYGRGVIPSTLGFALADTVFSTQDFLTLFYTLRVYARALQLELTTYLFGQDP
Method: as §1

[7] = target: T5, electric eel AChE (EC 3.1.1.7) (Electrophorus electricus, UniProt O42275); assay: Spectrophotometric assay for AChE inhibitory activity (modified Ellman's method); format: biochemical; settings: 96-well microplate, 1% DMSO; read-out: AChE inhibitory activity IC50
T5 construct: purchased Sigma-Aldrich, Germany
T5 sequence (O42275 24-633): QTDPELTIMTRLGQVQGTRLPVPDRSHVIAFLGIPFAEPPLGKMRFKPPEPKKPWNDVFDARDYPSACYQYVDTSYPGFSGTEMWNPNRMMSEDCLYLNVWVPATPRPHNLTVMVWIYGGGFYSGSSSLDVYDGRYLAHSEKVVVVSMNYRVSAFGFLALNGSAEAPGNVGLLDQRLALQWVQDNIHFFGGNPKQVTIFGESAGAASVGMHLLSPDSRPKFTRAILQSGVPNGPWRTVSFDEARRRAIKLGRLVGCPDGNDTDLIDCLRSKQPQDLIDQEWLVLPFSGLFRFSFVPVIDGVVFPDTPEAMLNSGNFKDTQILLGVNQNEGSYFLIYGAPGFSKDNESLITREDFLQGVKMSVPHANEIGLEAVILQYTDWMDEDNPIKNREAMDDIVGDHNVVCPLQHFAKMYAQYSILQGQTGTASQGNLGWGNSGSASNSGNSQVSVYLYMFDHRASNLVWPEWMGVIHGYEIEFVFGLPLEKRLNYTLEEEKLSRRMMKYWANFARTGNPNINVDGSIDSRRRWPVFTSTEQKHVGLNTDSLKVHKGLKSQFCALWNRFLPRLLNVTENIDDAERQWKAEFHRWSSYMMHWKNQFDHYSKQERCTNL

[8] = test system: extracellular ACh concentration in the nucleus accumbens; settings: for 0AUC120 min (% increase x min) Mean ± SEM: 0 to 120 min; for Increase in ACh release (Peak increase as % of basal output): nucleus accumbens
[9] = test system: frontal cortex synaptosomes; assay: ACh release from synaptosomes (15 mM K+-evoked [3H]-ACh release, superfusion); format: cell-based, male Sprague Dawley rats; settings: 15 mM K+
Method: Preparation of synaptosomes: synaptosomes were prepared from brain frontal cortex of male Sprague Dawley rats (4 months old). The frontal cortex was rapidly dissected on ice and homogenized in 40 volumes of 0.32 M sucrose buffered at pH 7.4 with 0.01 M sodium phosphate. The homogenate was centrifuged at 1,000 g for 5 min. The crude synaptosomal pellet was obtained by centrifugation of the supernatant at 15,000 g for 20 min and was resuspended in 5 ml basal medium (125 mM Nacl, 3 mM KCI, 1.2 mM MgS04, 1.2 mM CaCl2, 1.0 mM NaH2PO4, 22 mM NaHCO3 and 10 mM glucose) which had been gassed with 95% O2 - 5% CO2 at 37 °C, pH 7.2 - 7.4.
Superfusion protocol: The synaptosomal suspension was incubated with [^3H]-choline (0.03 µM, 17.5x10^6 Bq/g) for 15 min at 37 °C. Then, the suspension was diluted (1:8) and aliquots were applied on filters in a continuous superfusion system with parallel chambers maintained at 37 °C. The media used for superfusion were basal medium and 15 mM K^+-containing stimulation medium. Both media were supplemented with ACh (1 µM) to facilitate the effectiveness of an allosteric potentiating ligand at the nicotine receptor and with atropine (0.1 µM) to block M2 presynaptic receptors. Synaptosomes were superfused with basal medium for 30 min to reach a constant outflow of [^3H]-ACh. Under these experimental conditions, the radioactivity released consisted largely of newly synthesized [^3H]-ACh. The K^+-stimulated release of [^3H]-ACh was determined in 2 subsequently collected fractions: 6 min basal release (superfusion with basal medium) and 6 min K^+-evoked release (superfusion for 1.5 min with 15 mM K^+-containing medium followed by […] basal medium). The test compounds galantamine, 4 and 2 were present in the superfusion medium concomitantly with 15 mM K^+ (for 1.5 min). Basal release of [^3H]-ACh (continuous superfusion with basal medium) was determined by collection of a 6 min sample followed by four subsequent 2 min samples. Aliquots of samples were mixed with scintillation liquid and the radioactivity quantified with a scintillation counter. The radioactivity bound to the filters was also measured.
Statistical analysis: The amount of [^3H]-ACh released in each sample was calculated as fraction of total synaptosomal tritium at the start of the respective collection period (tritium in the sample / sum of tritium in the respective fractions and in the synaptosomes on the filter). K^+-evoked release was expressed as percentage of basal release rate. Each n=1 represents the mean of an experiment with one synaptosomal preparation in at least 3 superfusion chambers. Statistical significance of group variances was calculated by one way ANOVA followed by Bonferroni's test.

[10] = target: T6, K receptor (Cavia porcellus, UniProt P41144); format: biochemical, guinea pig
T6 construct: Membrane fractions were prepared from Sprague-Dawley rat or guinea pig brains; from tissue; host or cells: guinea pig brain (without cerebella) membranes
T6 sequence (P41144 whole entry): as the sequence (P41144 whole entry) above

[11] = target: T7, δ receptor (Rattus norvegicus, UniProt P33533); assay: [35S]GTPγS functional assay, rat brain membranes, δ receptor; format: biochemical, Sprague-Dawley rat
T7 construct: Membrane fractions were prepared from Sprague-Dawley rat or guinea pig brains; from tissue; host or cells: Sprague-Dawley rat brain (without cerebella) membranes
T7 sequence (P33533 whole entry): as the sequence (P33533 whole entry) above
Method: as §5, §6

[12] = test system: C57BL/6N female mice; assay: Object recognition task; settings: normal mice, 0.03 µmol i.c.v.
[13] = test system: C57BL/6N female mice; assay: T-maze continuous alternation; settings: normal mice

SMILES: CC(C)=CCN1CCC2(C)c3cc(O)ccc3CC1C2C (racemic) [(±)Pentazocine, reference compound]
- IC50 [1]: 0.0546 ± 0.0053 µM

SMILES: O=CN1CC[C@]23CC(=O)CC[C@H]2[C@H]1CC1=C3C(=O)C=CC1=O [1,4-dione-N-formylmorphinan-6-one]
- binding to opioid receptor K (in words) [2]: does not bind
- binding to opioid receptor δ (in words) [3]: does not bind
- binding to opioid receptor µ (in words) [4]: does not bind

SMILES: O=CN1CC[C@]23c4c5cccc4OC2C(=O)CC[C@H]3[C@H]1C5 (stereo partly drawn) [4,5-epoxy-N-formylmorphinan-6-one]
- binding to opioid receptor K (in words) [2]: does not bind
- binding to opioid receptor δ (in words) [3]: does not bind
- binding to opioid receptor µ (in words) [4]: does not bind

SMILES: C=CCN1CC[C@]23CC(=O)CC[C@@]2(OC)[C@H]1Cc1cccc(OC)c13 [4,14-dimethoxy-N-allyl-morphinan-6-one]
- function at the µ opioid receptor [5]: antagonistic function

SMILES: CCCN1CCC[C@H](c2cccc(O)c2)C1 [(+)-3-PPP, reference compound]
- IC50 [6]: 0.0682 ± 0.0048 µM

SMILES: C=CCN1CC[C@]2(C)c3cc(O)ccc3C[C@H]1[C@H]2C [(+)-SKF-10,047, reference compound]
- IC50 [1]: 0.291 ± 0.014 µM

SMILES: O=CN1CC[C@]23CC(=O)CC[C@H]2[C@H]1CC1=C3C(=O)C=CC1=O [Compound 2, 1,4-dione-N-formylmorphinan-6-one]
- Ki ([2]; [3H]U69,593, guinea pig brain membranes, read-out: Opioid binding affinities Ki κ receptor): > 10 µM
- Ki ([2]; no specific binding, read-out: Ki, k opioid receptor): > 10 µM
- IC50 [6]: > 10 µM
- IC50 [7]: 12.7 µM
- Ki ([3]; [3H][Ile5,6]deltorphin II, rat brain membranes, read-out: Opioid binding affinities Ki δ receptor): > 10 µM
- Ki ([3]; no specific binding, read-out: Ki, δ opioid receptor): > 10 µM
- Ki ([4]; [3H]DAMGO, rat brain membranes, read-out: Opioid binding affinities Ki µ receptor): > 10 µM
- Ki ([4]; no specific binding, read-out: Ki, µ opioid receptor): > 10 µM
- IC50 [1]: > 0.01 µM
- effect on ACh in the superfusate (in words) ([8]; 0.5 µmol i.c.v.): short increase in ACh concentration followed by a decrease
- toxicity at higher doses ([8]; 1 µmol and above, i.c.v., anaesthetized rats): could not be tested because of toxicity
- 0AUC120 min (% increase x min) Mean ± SEM ([8]; Dose 0.5 µmol i.c.v.): 98 ± 27 % increase x min
- Increase in ACh release (Peak increase as % of basal output) ([8]; Dose 0.5 µmol i.c.v.): 57 ± 14 %

SMILES: Cc1ccccc1NC(=N)Nc1ccccc1C [DTG, reference compound]
- IC50 [1]: 0.126 ± 0.005 µM

SMILES: COc1ccc2c3c1O[C@H]1C[C@@H](O)C=C[C@@]31CCN(C)C2 [Galantamine, galantamine, reference compound]
- 0AUC120 min (% increase x min) Mean ± SEM ([8]; Dose 0.5 µmol i.c.v.): 642 ± 85 % increase x min
- Increase in ACh release (Peak increase as % of basal output) ([8]; Dose 0.5 µmol i.c.v.): 118 ± 29 %
- 0AUC120 min (% increase x min) Mean ± SEM ([8]; Dose 1 µmol i.c.v.): 1857 ± 173 % increase x min
- Increase in ACh release (Peak increase as % of basal output) ([8]; Dose 1 µmol i.c.v.): 101 ± 42 %
- concentration of maximal effect on stimulation-evoked ACh release [9]: 1 µM

SMILES: Oc1ccc2c3c1O[C@H]1c4[nH]c5c(c4C[C@@]4(O)[C@@H](C2)N(CC2CC2)CC[C@]314)C[C@@]1(O)[C@H]2Cc3ccc(O)c4c3[C@@]1(CCN2CC1CC1)[C@H]5O4 [Nor-BNI, reference compound]
- effect on [35S]GTPγS binding stimulated by U69,593 [10]: highly effective in inhibiting

SMILES: C=CCN1C[C@H](C)N([C@H](c2ccc(C(=O)N(CC)CC)cc2)c2cccc(OC)c2)C[C@H]1C [SNC 80, reference compound]
- Emax ([11]; data not shown, read-out: Emax (% of basal activity)): 137 ± 4%

SMILES: CN1[C@@H]2C[C@@H](OC(=O)[C@H](CO)c3ccccc3)C[C@H]1[C@@H]1O[C@@H]12 [Scopolamine, scopolamine, reference compound]
- object recognition, exploration ratio novel/familiar object [12]: close to one
- running time ([13]; 0.033 µmol): only a moderate increase
- spontaneous alternation ([13]; 0.033 µmol): profound decrease
- running time ([13]; dose series, bell-shaped curve, not shown): strong increase
- spontaneous alternation ([13]; dose series, not shown): dose-dependent reduction

SMILES: Nc1c2c(nc3ccccc13)CCCC2 [Tacrine, tacrine, reference compound]
- dose dependence of the increase in extracellular brain ACh ([8]; rat, in vivo): pronounced and dose-dependent increases

SMILES: COc1cccc2c1[C@]13CCN(CC4CC4)[C@H](C2)[C@]1(OC)CCC(=O)C3 [cyprodime, reference compound]
- effect on [35S]GTPγS binding stimulated by DAMGO ([5]; compound 10 µM, DAMGO 10 µM, rat brain membranes): significantly decreased

SMILES: Oc1ccc2c3c1O[C@H]1c4[nH]c5ccccc5c4C[C@@]4(O)[C@@H](C2)N(CC2CC2)CC[C@]314 [naltrindole, reference compound]
- effect on [35S]GTPγS binding stimulated by SNC 80 ([11]; compound 10 µM, SNC 80 10 µM): markedly decreased
